These results are taken from patent publication US4532255A, “Amidine compounds and anticomplement agent comprising same” (Torii & Co., Ltd., priority 1980, dated 1985).

pIC50: −log10 of the molar value.

Assay [1] concerns Kallikrein. In words: Anti-kallikrein activity (hydrolysis of TAME). The class given is biochemical. Conditions: at 1×10^-5 M.
A further assay has as its target Thrombin (Homo sapiens, UniProt P00734). The assay can be described thus: biochemical. Conditions: for inhibition at 10 µM: at 1×10^-5 M, read-out: Thrombin percentage inhibition; for pIC50: molar concentration inhibiting 50% of TAME hydrolysis, read-out: Thrombin ID50. The procedure: (§1) The anti-trypsin, anti-plasmin, anti-kallikrein and anti-thrombin activities were determined according to the method of Muramatsu et al. [M. Muramatsu, T. Onishi, S. Makino, Y. Hayashi and S. Fujii, J. of Biochem., 58, 214 (1965)]. The data summarized in Table 1 are expressed in terms of molar concentration (ID50) of the test compound which inhibits 50% of the activity of each enzyme to hydrolyze TAME (tosylalginine methyl ester). The compound No. corresponds to the compound number shown in Examples.

The target of a further assay is T1, Trypsin (Bos taurus, UniProt P00760).
T1 sequence (P00760 24-246): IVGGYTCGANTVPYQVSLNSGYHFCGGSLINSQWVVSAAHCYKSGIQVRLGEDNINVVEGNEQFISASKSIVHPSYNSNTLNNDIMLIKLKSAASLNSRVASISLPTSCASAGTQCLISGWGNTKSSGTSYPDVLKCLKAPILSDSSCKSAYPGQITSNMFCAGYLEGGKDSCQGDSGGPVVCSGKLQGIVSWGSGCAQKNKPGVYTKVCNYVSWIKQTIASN
The assay can be described thus: Anti-trypsin activity (hydrolysis of TAME). Conditions: for pIC50: molar concentration inhibiting 50% of TAME hydrolysis, read-out: Trypsin ID50. The class given is biochemical. The procedure:
(§2) The anti-trypsin, anti-plasmin, anti-kallikrein and anti-thrombin activities were determined according to the method of Muramatsu et al. [M. Muramatsu, T. Onishi, S. Makino, Y. Hayashi and S. Fujii, J. of Biochem., 58, 214 (1965)]. […] The compound No. corresponds to the compound number shown in Examples.

In a further assay the target is Plasmin (Homo sapiens, UniProt P00747). The assay can be described thus: Anti-plasmin activity (hydrolysis of TAME). Conditions: for pIC50: molar concentration inhibiting 50% of TAME hydrolysis, read-out: Plasmin ID50. The class given is biochemical. How it is done: as §2
Sequence of Plasmin (P00747 581-810 limits assumed, species assumed): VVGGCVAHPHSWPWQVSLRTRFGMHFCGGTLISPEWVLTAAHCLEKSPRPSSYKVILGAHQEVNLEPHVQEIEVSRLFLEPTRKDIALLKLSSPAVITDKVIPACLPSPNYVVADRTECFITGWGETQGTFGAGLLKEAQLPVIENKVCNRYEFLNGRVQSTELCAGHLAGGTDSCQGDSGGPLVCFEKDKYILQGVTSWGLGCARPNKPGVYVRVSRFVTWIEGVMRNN
Sequence of Plasmin (P00747 97-580 partner limits assumed, species assumed): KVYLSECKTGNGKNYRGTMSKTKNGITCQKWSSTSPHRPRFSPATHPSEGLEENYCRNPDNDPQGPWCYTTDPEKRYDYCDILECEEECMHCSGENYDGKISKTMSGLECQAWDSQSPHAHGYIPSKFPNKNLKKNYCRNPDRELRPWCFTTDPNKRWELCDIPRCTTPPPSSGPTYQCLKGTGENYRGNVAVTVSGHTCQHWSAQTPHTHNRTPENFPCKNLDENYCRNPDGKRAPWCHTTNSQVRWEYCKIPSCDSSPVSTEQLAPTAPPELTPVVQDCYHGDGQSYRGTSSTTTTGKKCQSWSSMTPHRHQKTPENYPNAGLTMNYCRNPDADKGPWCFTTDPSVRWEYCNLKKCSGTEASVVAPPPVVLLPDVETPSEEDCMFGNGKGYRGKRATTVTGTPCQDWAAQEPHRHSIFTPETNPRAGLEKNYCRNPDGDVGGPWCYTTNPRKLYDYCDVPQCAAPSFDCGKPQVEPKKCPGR
The next assay deals with T2, C1s (Homo sapiens, UniProt P09871).
T2 sequence (P09871 438-688 limits assumed): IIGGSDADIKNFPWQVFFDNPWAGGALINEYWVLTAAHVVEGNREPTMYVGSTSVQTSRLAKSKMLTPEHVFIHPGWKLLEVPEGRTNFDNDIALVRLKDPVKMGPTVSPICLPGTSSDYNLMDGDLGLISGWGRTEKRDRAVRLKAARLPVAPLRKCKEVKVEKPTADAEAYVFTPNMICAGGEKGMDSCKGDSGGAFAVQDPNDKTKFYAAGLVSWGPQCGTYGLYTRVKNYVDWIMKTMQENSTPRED
T2 sequence (P09871 16-437 partner limits assumed): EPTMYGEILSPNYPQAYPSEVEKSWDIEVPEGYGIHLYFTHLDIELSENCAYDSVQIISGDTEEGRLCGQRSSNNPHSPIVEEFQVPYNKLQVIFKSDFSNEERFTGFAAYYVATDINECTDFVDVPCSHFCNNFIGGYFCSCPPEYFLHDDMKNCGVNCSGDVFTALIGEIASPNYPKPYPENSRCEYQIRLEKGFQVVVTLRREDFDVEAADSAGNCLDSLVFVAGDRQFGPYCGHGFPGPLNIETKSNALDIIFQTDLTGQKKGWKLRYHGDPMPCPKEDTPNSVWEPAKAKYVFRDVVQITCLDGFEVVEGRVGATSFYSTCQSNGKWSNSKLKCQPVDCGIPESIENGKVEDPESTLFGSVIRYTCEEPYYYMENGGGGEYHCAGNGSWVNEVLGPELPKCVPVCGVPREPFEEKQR
In words: biochemical. Conditions: ATEE hydrolysis; read-out: Anti-C1 activity, C1s ID50. How it is done:
The anti-Cl esterase (Clr, Cls) activity was determined according to the method of Okamura et al. [K. Okamura, M. Muramatsu and S. Fujii, Biochem. Biophys. […] The figures in Table 2 have the following meanings:
Cls: Molar concentration of the test compound which inhibits 50% of the ability of Cls to hydrolyse ATEE (acetyltyrosin ethyl ester).

Assay [2] deals with complement mediated hemolysis. The assay can be described thus: Inhibition of complement mediated hemolysis. The class given is cell-based.
Protocol: The principle of this method is based on the fact that hemolysis is caused by the activation of complement, when the latter is added to a complex (immune complex) of erythrocytes and the antibody thereof. The degree of hemolysis varies in proportion to the amount of complement added. Therefore, when a known amount of complement admixed with a C1 esterase inhibitor is used, the hemolysis must be suppressed in proportion to the inhibitory activity.
The target in another assay is T3, C1r (Homo sapiens, UniProt P00736).
T3 sequence (P00736 464-705 limits assumed): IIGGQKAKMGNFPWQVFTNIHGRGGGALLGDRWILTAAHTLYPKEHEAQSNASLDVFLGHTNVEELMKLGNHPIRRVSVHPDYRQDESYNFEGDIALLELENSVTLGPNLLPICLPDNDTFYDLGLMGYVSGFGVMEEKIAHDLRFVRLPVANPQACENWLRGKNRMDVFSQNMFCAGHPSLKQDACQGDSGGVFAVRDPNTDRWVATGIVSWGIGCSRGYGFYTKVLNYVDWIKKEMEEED
T3 sequence (P00736 18-463 partner limits assumed): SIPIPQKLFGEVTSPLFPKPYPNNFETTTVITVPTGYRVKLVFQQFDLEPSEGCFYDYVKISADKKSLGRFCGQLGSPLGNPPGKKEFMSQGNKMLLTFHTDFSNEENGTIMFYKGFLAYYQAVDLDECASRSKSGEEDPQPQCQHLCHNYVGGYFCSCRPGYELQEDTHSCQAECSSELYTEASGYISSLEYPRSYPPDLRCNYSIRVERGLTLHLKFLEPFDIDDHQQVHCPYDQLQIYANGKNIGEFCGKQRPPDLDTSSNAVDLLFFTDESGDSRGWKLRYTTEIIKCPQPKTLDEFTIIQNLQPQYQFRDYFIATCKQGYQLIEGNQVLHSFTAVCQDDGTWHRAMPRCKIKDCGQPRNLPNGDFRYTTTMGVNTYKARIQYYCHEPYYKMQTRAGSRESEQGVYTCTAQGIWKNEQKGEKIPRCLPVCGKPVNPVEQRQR
In words: Anti-C1 esterase (C1r) activity (hydrolysis of AAME). The class given is biochemical. Conditions: for inhibition at 10 µM: at 1×10^-5 M, read-out: Anti-C1 activity, C1r percent inhibition; for pIC50: AAME hydrolysis, read-out: Anti-C1 activity, C1r ID50. The procedure: The anti-Cl esterase ([…]) activity was determined according to the method of Okamura et al. [K. Okamura, M. Muramatsu and S. Fujii, Biochem. Biophys.

The test system of assay [3] is Kallikrein. In words: Anti-kallikrein activity (hydrolysis of TAME). The class given is biochemical. Conditions: molar concentration inhibiting 50% of TAME hydrolysis; read-out: Kallikrein ID50. How it is done: as §1

The inhibition is the share of the control response that was lost under treatment. For the compound `COc1ccc(CCC(=O)Oc2ccc3cc(C(=N)N)ccc3c2)cc1OC` [Compound 49], the Kallikrein percentage inhibition in the assay with Kallikrein [1] worked out at 29%. Moreover, the inhibition at 10 µM at Thrombin amounted to 17%. For the same compound, the pIC50 at Trypsin was 5.70; at Plasmin, 5.40.

With `N=C(N)Nc1ccc(C=CC(=O)Oc2ccc3cc(C(=N)N)ccc3c2)cc1` [Compound 64, 6-amidino-2-naphthyl 4-guanidinocinnamate], the pIC50 at C1s is 5.52; on Thrombin, under 5.00; at Trypsin, 5.70; on Plasmin, 5.00; in the assay on Kallikrein [3], 5.40. Moreover, the “Inhibition of complement mediated hemolysis (%)” value (shortened to “Inhibition … (%)”) was determined as 39% in assay [2] (1 × 10^-5), 17% in assay [2] (1 × 10^-6) and 19% in assay [2] (1 × 10^-7). Also, the inhibition at 10 µM at C1r turned out to be 14%.

As to `Cc1ccc(C(=O)Oc2ccc3cc(C(=N)N)ccc3c2)cc1` [Compound 4], the pIC50 on C1s was 7.15; on Thrombin it was 4.70; on C1r, 6.40; on Trypsin, 6.00; on Plasmin it was 6.30; in the assay with Kallikrein [3] it was 5.10. The results for the “Inhibition … (%)” value in assay [2] (1 × 10^-5), in assay [2] (1 × 10^-6) and in assay [2] (1 × 10^-7) were 85%, 37% and 21%, respectively.

For `N=C(N)c1ccc2cc(OC(=O)C=Cc3cccc(C(F)(F)F)c3)ccc2c1` [Compound 66], the pIC50 at C1s was 5.40; on C1r it was 5.22; on Trypsin, 5.22; at Plasmin it was 6.30; with Kallikrein [3] it was under 5.00. Moreover, the “Inhibition … (%)” value in assay [2] (1 × 10^-4) was determined as 60%; in assay [2] (1 × 10^-5), 6%; in assay [2] (1 × 10^-6), 1%; in assay [2] (1 × 10^-7), 1%. On Thrombin, the inhibition at 10 µM stood at 21%.

As to `N=C(N)c1ccc2cc(OC(=O)c3ccc(C=O)cc3)ccc2c1` [Compound 31], the pIC50 on C1s is 5.52; at Thrombin, 6.52; at C1r, 5.70; at Trypsin, 5.40; at Plasmin, 6.40; with Kallikrein [3], under 5.00. Further, the “Inhibition … (%)” value was determined as 98% in assay [2] (1 × 10^-4), 99% in assay [2] (1 × 10^-5), 92% in assay [2] (1 × 10^-6) and 76% in assay [2] (1 × 10^-7).

As for `N=C(N)c1ccc2cc(OC(=O)c3ccc([N+](=O)[O-])cc3)ccc2c1` [Compound 18, 6-amidino-2-naphthyl 4-nitrobenzoate], the pIC50 on C1s is 5.40; at Thrombin, 5.70; at C1r it was 5.40; at Trypsin, 5.00; at Plasmin it was 5.52; with Kallikrein [3] it was under 5.00. The “Inhibition … (%)” value in assay [2] (1 × 10^-4) came to 92%; in assay [2] (1 × 10^-5), 97%; in assay [2] (1 × 10^-6), 56%; in assay [2] (1 × 10^-7), 20%.

For `COc1ccccc1OCC(=O)Oc1ccc2cc(C(=N)N)ccc2c1` [Compound 68], the pIC50 is under 5.00 at C1s; 5.00 at Thrombin; under 5.00 at C1r; under 5.00 on Trypsin; under 5.00 at Plasmin; under 5.00 in the assay on Kallikrein [3]. Moreover, the “Inhibition … (%)” value in assay [2] (1 × 10^-4) stood at 91%; in assay [2] (1 × 10^-5), 4%; in assay [2] (1 × 10^-6) it was 0%; in assay [2] (1 × 10^-7), 0%.

For `N=C(N)c1ccc2cc(OC(=O)C=Cc3ccccc3)ccc2c1` [Compound 57, 6-amidino-2-naphthyl cinnamate], the pIC50 is 5.52 at C1s; 5.00 at Thrombin; 4.52 at C1r; 5.30 on Trypsin; 5.52 at Plasmin; 4.30 with Kallikrein [3]. In addition, the “Inhibition … (%)” value stood at 80% in assay [2] (1 × 10^-5), 24% in assay [2] (1 × 10^-6) and 23% in assay [2] (1 × 10^-7).

`CC(=O)Oc1ccccc1C(=O)Oc1ccc2cc(C(=N)N)ccc2c1` [Compound 12]: the pIC50 at C1s was 5.52; at Thrombin, under 5.00; on C1r, 5.52; in the assay on Kallikrein [3] it was under 5.00. For the same compound, the “Inhibition … (%)” value in assay [2] (1 × 10^-4) is recorded as 87%; in assay [2] (1 × 10^-5) it was 55%; in assay [2] (1 × 10^-6), 27%; in assay [2] (1 × 10^-7) it was 3%. The inhibition at 10 µM was found to be 24% at Trypsin (at 1×10^-5 M, read-out: Trypsin percentage inhibition) and 40% on Plasmin (at 1×10^-5 M, read-out: Plasmin percentage inhibition).

`N=C(N)c1ccc2cc(OC(=O)C=Cc3ccc(N)cc3)ccc2c1` [Compound 63, 6-amidino-2-naphthyl 4-aminocinnamate]: the pIC50 at C1s is 6.40; on Thrombin, under 5.00; at Trypsin it was 5.70; on Plasmin, 5.10; with Kallikrein [3], 5.40. Besides, the “Inhibition … (%)” value is 73% in assay [2] (1 × 10^-4), 37% in assay [2] (1 × 10^-5), 26% in assay [2] (1 × 10^-6) and 42% in assay [2] (1 × 10^-7). Further, on C1r, the inhibition at 10 µM came out at 15%.

Consider `N=C(N)c1ccc2cc(OC(=O)c3ccccc3)ccc2c1` [Compound 1, 6-amidino-2-naphthyl benzoate], for which the pIC50 was 7.00 at C1s; 5.30 on Thrombin; 6.40 on C1r; 5.52 on Trypsin; 5.70 on Plasmin; 4.52 in the assay on Kallikrein [3]. The “Inhibition … (%)” value in assay [2] (1 × 10^-4) was 100%; in assay [2] (1 × 10^-5) it was 100%; in assay [2] (1 × 10^-6), 91%; in assay [2] (1 × 10^-7), 27%.
